Test results published in patent US10555536B2, “Crop fortification, nutrition and crop protection composition” (priority 2017, dated 2020).

System: Groundnut
Test: Field trial on groundnut, protein content of seeds
Design: species or system Groundnut GG-2 variety
Conditions: in vivo
From the text: Field Trial Study of Treatments with Spirulina Compositions on Groundnut by Soil Drenching. Trials were laid in Ishvarpura (Idar) village, Dist.-Sabarkantha, Gujarat, India, to evaluate various compositions for treatment of Groundnut GG-2 variety. The plot size was 3828 m2. All the recommended agronomic practices were followed. All the treatments were applied by Soil drenching. Also, no urea or any other chemical fertilizer was applied in the trial and in the previous crop. Thus, the parts where compositions of the present invention were applied were free of chemical nutrient for over a year.

**Q.** For `NC(N)=O` [Urea], which “Protein content of Groundnut Seeds %” value is on record?
**A.** 48.884%
